From patent US10202339B2, “Therapeutic compounds and compositions” (AGIOS PHARMACEUTICALS, INC., priority 2012, dated 2019)

Target: IDH2 R140Q (Homo sapiens (Human), UniProt P48735, R140Q)
Assay: IDH2 R140Q enzymatic cofactor depletion assay (diaphorase/resazurin)
Assay type: biochemical
Conditions: IDH2 R140Q enzyme, one hour preincubation with compound, one hour reaction; read-out: Enz R140Q
Description: The reaction was terminated by the addition of a second enzyme, diaphorase, and a corresponding substrate, resazurin. Diaphorase reduces resazurin to the highly fluorescent resorufin with the concomitant oxidation of NADPH to NADP, both halting the IDH2 reaction by depleting the available cofactor pool and facilitating quantitation of the amount of cofactor remaining after a specific time period through quantitative production of an easily detected fluorophore.
The compound was then incubated for one hour at room temperature with the enzyme; before starting the IDH2 reaction with the addition of 10 μl of substrate mix containing 50 μM NADPH and 6.3 mM α-KG in the buffer described above. After a further one hour of incubation at room temperature, the reaction was halted and the remaining NADPH measured through conversion of resazurin to resorufin by the addition of 25 μl Stop Mix (36 μg/ml diaphorase enzyme and 60 μM resazurin; in buffer). After one minute of incubation the plate was read on a plate reader at Ex544/Em590.

Sequence of IDH2 R140Q (P48735 40-452 R140Q): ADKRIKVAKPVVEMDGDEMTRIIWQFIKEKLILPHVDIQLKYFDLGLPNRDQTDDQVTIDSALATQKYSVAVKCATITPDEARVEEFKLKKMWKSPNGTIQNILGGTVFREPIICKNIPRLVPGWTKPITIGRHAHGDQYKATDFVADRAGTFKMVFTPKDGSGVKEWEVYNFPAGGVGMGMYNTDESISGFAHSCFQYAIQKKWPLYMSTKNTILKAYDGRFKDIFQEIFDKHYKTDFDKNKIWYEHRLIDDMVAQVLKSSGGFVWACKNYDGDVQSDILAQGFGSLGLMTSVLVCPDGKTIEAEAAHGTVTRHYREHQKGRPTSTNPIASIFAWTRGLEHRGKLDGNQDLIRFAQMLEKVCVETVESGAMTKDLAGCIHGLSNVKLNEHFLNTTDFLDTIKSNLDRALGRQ

Compound `O=C(Nc1cccc(C(F)(F)F)c1)Nc1cc(S(=O)(=O)NCC(F)(F)F)ccc1-c1ccccc1` [Compound 44, N-(2,2,2-trifluoroethyl)-2-(3-(3-(trifluoromethyl)phenyl)ureido)-[1,1′-biphenyl]-4-sulfonamide] has an IC50 of 100 to 1000 nM.

For `O=C(Nc1cccc(C(F)(F)F)c1)Nc1cc(S(=O)(=O)NC2COC2)ccc1-c1ccccc1` [Compound 45, N-(oxetan-3-yl)-2-(3-(3-(trifluoromethyl)phenyl)ureido)-[1,1′-biphenyl]-4-sulfonamide], the IC50 was under 100 nM.

For `N#CC1(NS(=O)(=O)c2ccc(-c3ccccc3)c(NC(=O)Nc3cccc(C(F)(F)F)c3)c2)CC1` [Compound 46, N-(1-cyanocyclopropyl)-2-(3-(3-(trifluoromethyl)phenyl)ureido)-[1,1′-biphenyl]-4-sulfonamide], the IC50 was 100 to 1000 nM.

`Cc1cccc(-c2ccc(S(=O)(=O)NC3CCOCC3)cc2NC(=O)Nc2cccc(C(F)(F)F)c2)c1` [Compound 47, 3′-methyl-N-(tetrahydro-2H-pyran-4-yl)-2-(3-(3-(trifluoromethyl)phenyl)ureido)-[1,1′-biphenyl]-4-sulfonamide] gave an IC50 of 100 to 1000 nM.

For `Cc1cccc(-c2ccc(S(=O)(=O)NC3CC3)cc2NC(=O)Nc2cccc(C(F)(F)F)c2)c1` [Compound 48, N-cyclopropyl-3′-methyl-2-(3-(3-(trifluoromethyl)phenyl)ureido)-[1,1′-biphenyl]-4-sulfonamide], the IC50 was 1000 to 10000 nM.

Work on `O=C(Nc1cccc(C(F)(F)F)c1)Nc1cc(S(=O)(=O)Nc2ccccc2)ccc1-c1cccc(O)c1` [Compound 50, 3′-hydroxy-N-phenyl-2-(3-(3-(trifluoromethyl)phenyl)ureido)-[1,1′-biphenyl]-4-sulfonamide] yielded an IC50 of 100 to 1000 nM.

Work on `COc1cccc(-c2ccc(S(=O)(=O)Nc3ccccc3)cc2NC(=O)Nc2cccc(C(F)(F)F)c2)c1` [Compound 51] yielded an IC50 of 1000 to 10000 nM.

`O=C(Nc1ccc(F)c(Cl)c1)Nc1cc(S(=O)(=O)NC2CC2)ccc1-c1ccccc1` [Compound 52] gave an IC50 of 1000 to 10000 nM.

For `O=C(Nc1ccc(F)cc1)Nc1cc(S(=O)(=O)NC2CC2)ccc1-c1ccccc1` [Compound 53], the IC50 was 1000 to 10000 nM.

For `O=C(Nc1cc(S(=O)(=O)NCC(F)(F)F)ccc1-c1ccccc1)NC1CCCC1` [Compound 54], the IC50 was 1000 to 10000 nM.

With `O=C(Nc1ccc(F)c(Cl)c1)Nc1cc(S(=O)(=O)NCC(F)(F)F)ccc1-c1cccnc1` [Compound 55] the IC50 was 1000 to 10000 nM.

`O=C(Nc1ccc(F)c(C(F)(F)F)c1)Nc1cc(S(=O)(=O)NCC(F)(F)F)ccc1-c1cccnc1` [Compound 56] gave an IC50 of 1000 to 10000 nM.

`O=C(Nc1cccc(C(F)(F)F)c1)Nc1cc(S(=O)(=O)Nc2ccccc2)ccc1-c1cccc(Cl)c1` [Compound 57] was tested, and the IC50 was 1000 to 10000 nM.

`CS(=O)(=O)c1cccc(-c2ccc(S(=O)(=O)Nc3ccccc3)cc2NC(=O)Nc2cccc(C(F)(F)F)c2)c1` [Compound 58] showed an IC50 of 1000 to 10000 nM.

`COc1ccc(-c2ccc(S(=O)(=O)Nc3ccccc3)cc2NC(=O)Nc2cccc(C(F)(F)F)c2)cc1` [Compound 59] was tested, and the IC50 was 1000 to 10000 nM.

With `O=C(Nc1cccc(C(F)(F)F)c1)Nc1cc(S(=O)(=O)Nc2ccccc2)ccc1-c1ccncc1` [Compound 60] the IC50 was 1000 to 10000 nM.

In the case of `O=C(Nc1cccc(C(F)(F)F)c1)Nc1cc(S(=O)(=O)Nc2ccccc2)ccc1-c1cccnc1` [Compound 61], the IC50 is reported as 1000 to 10000 nM.

In the case of `Cc1ccc(-c2ccc(S(=O)(=O)Nc3ccccc3)cc2NC(=O)Nc2cccc(C(F)(F)F)c2)cc1` [Compound 62], the IC50 is reported as 1000 to 10000 nM.

For `O=C(Nc1cccc(C(F)(F)F)c1)Nc1cc(S(=O)(=O)Nc2ccccc2)ccc1-c1ccccc1F` [Compound 63], the IC50 was 1000 to 10000 nM.

Work on `O=C(Nc1cccc(C(F)(F)F)c1)Nc1cc(S(=O)(=O)Nc2ccccc2)ccc1-c1cccc(F)c1` [Compound 64] yielded an IC50 of 1000 to 10000 nM.

`O=C(Nc1cc(C(F)(F)F)ccn1)Nc1cc(S(=O)(=O)NCC(F)(F)F)ccc1-c1cccnc1` [Compound 65] showed an IC50 of 1000 to 10000 nM.

Compound `O=C(Nc1cc(S(=O)(=O)NCC(F)(F)F)ccc1-c1ccccc1)NC1CCCCC1` [Compound 66, 2-(3-cyclohexylureido)-N-(2,2,2-trifluoroethyl)-[1,1′-biphenyl]-4-sulfonamide] has an IC50 of 100 to 1000 nM.

`CS(=O)(=O)c1cccc(NC(=O)Nc2cc(S(=O)(=O)NCC(F)(F)F)ccc2-c2ccccc2)c1` [Compound 67, 2-(3-(3-(methylsulfonyl)phenyl)ureido)-N-(2,2,2-trifluoroethyl)-[1,1′-biphenyl]-4-sulfonamide] showed an IC50 of 100 to 1000 nM.

`O=C(Nc1ccc(F)cc1F)Nc1cc(S(=O)(=O)NCC(F)(F)F)ccc1-c1ccccc1` [Compound 68, 2-(3-(2,4-difluorophenyl)ureido)-N-(2,2,2-trifluoroethyl)-[1,1′-biphenyl]-4-sulfonamide] was tested, and the IC50 was 100 to 1000 nM.

`O=C(Nc1ccc(F)c(C(F)(F)F)c1)Nc1cc(S(=O)(=O)NCC(F)(F)F)ccc1-c1ccccc1` [Compound 69, 2-(3-(4-fluoro-3-(trifluoromethyl)phenyl)ureido)-N-(2,2,2-trifluoroethyl)-[1,1′-biphenyl]-4-sulfonamide] gave an IC50 of 100 to 1000 nM.

`O=C(Nc1nccs1)Nc1cc(S(=O)(=O)NCC(F)(F)F)ccc1-c1ccccc1` [Compound 70, 2-(3-(thiazol-2-yl)ureido)-N-(2,2,2-trifluoroethyl)-[1,1′-biphenyl]-4-sulfonamide] was tested, and the IC50 was 100 to 1000 nM.

`CC1CCCC(NC(=O)Nc2cc(S(=O)(=O)NCC(F)(F)F)ccc2-c2ccccc2)C1` (stereo not drawn) [Compound 71, 2-(3-(3-methylcyclohexyl)ureido)-N-(2,2,2-trifluoroethyl)-[1,1′-biphenyl]-4-sulfonamide] was tested, and the IC50 was 100 to 1000 nM.

`O=C(Nc1cc(S(=O)(=O)NCC(F)(F)F)ccc1-c1ccccc1)NC1CCCC(C(F)(F)F)C1` (stereo not drawn) [Compound 72, N-(2,2,2-trifluoroethyl)-2-(3-(3-(trifluoromethyl)cyclohexyl)ureido)-[1,1′-biphenyl]-4-sulfonamide] was tested, and the IC50 was 100 to 1000 nM.

`CC1(C)CCCC(NC(=O)Nc2cc(S(=O)(=O)NCC(F)(F)F)ccc2-c2ccccc2)C1` (stereo not drawn) [Compound 73] showed an IC50 of 1000 to 10000 nM.

Work on `O=C(Nc1cc(Cl)ccc1F)Nc1cc(S(=O)(=O)NCC(F)(F)F)ccc1-c1ccccc1` [Compound 74, 2-(3-(5-chloro-2-fluorophenyl)ureido)-N-(2,2,2-trifluoroethyl)-[1,1′-biphenyl]-4-sulfonamide] yielded an IC50 of 100 to 1000 nM.

In the case of `O=C(Nc1cc(S(=O)(=O)NCC(F)(F)F)ccc1-c1ccccc1)Nc1ccc(F)cc1C(F)(F)F` [Compound 76, 2-(3-(4-fluoro-2-(trifluoromethyl)phenyl)ureido)-N-(2,2,2-trifluoroethyl)-[1,1′-biphenyl]-4-sulfonamide], the IC50 is reported as 100 to 1000 nM.

Work on `O=C(Nc1cc(S(=O)(=O)NCC(F)(F)F)ccc1-c1ccccc1)Nc1ccncc1C(F)(F)F` [Compound 78, N-(2,2,2-trifluoroethyl)-2-(3-(3-(trifluoromethyl)pyridin-4-yl)ureido)-[1,1′-biphenyl]-4-sulfonamide] yielded an IC50 of 100 to 1000 nM.

Compound `O=C(Nc1cccc(Cl)n1)Nc1cc(S(=O)(=O)NCC(F)(F)F)ccc1-c1ccccc1` [Compound 79, 2-(3-(6-chloropyridin-2-yl)ureido)-N-(2,2,2-trifluoroethyl)-[1,1′-biphenyl]-4-sulfonamide] has an IC50 of 100 to 1000 nM.

For `O=C(Nc1cccc(CO)c1)Nc1cc(S(=O)(=O)NCC(F)(F)F)ccc1-c1ccccc1` [Compound 80, 2-(3-(3-(hydroxymethyl)phenyl)ureido)-N-(2,2,2-trifluoroethyl)-[1,1′-biphenyl]-4-sulfonamide], the IC50 was 100 to 1000 nM.

In the case of `O=C(Nc1cccc(O)c1)Nc1cc(S(=O)(=O)NCC(F)(F)F)ccc1-c1ccccc1` [Compound 81, 2-(3-(3-hydroxyphenyl)ureido)-N-(2,2,2-trifluoroethyl)-[1,1′-biphenyl]-4-sulfonamide], the IC50 is reported as 100 to 1000 nM.

Work on `O=C(Nc1cc(Cl)ccn1)Nc1cc(S(=O)(=O)NCC(F)(F)F)ccc1-c1ccccc1` [Compound 82, 2-(3-(4-chloropyridin-2-yl)ureido)-N-(2,2,2-trifluoroethyl)-[1,1′-biphenyl]-4-sulfonamide] yielded an IC50 of 100 to 1000 nM.

With `C[S+]([O-])c1cccc(NC(=O)Nc2cc(S(=O)(=O)NCC(F)(F)F)ccc2-c2ccccc2)c1` (stereo not drawn) [Compound 83, 2-(3-(3-(methylsulfinyl)phenyl)ureido)-N-(2,2,2-trifluoroethyl)-[1,1′-biphenyl]-4-sulfonamide] the IC50 was 100 to 1000 nM.

Work on `O=C(Nc1cc(S(=O)(=O)NCC(F)(F)F)ccc1-c1ccccc1)Nc1cnccc1C(F)(F)F` [Compound 84, N-(2,2,2-trifluoroethyl)-2-(3-(4-(trifluoromethyl)pyridin-3-yl)ureido)-[1,1′-biphenyl]-4-sulfonamide] yielded an IC50 of 100 to 1000 nM.

Compound `O=C(Nc1cnccc1Cl)Nc1cc(S(=O)(=O)NCC(F)(F)F)ccc1-c1ccccc1` [Compound 85, 2-(3-(4-chloropyridin-3-yl)ureido)-N-(2,2,2-trifluoroethyl)-[1,1′-biphenyl]-4-sulfonamide] has an IC50 of 100 to 1000 nM.

Compound `O=C(Nc1cccc(F)n1)Nc1cc(S(=O)(=O)NCC(F)(F)F)ccc1-c1ccccc1` [Compound 86, 2-(3-(6-fluoropyridin-2-yl)ureido)-N-(2,2,2-trifluoroethyl)-[1,1′-biphenyl]-4-sulfonamide] has an IC50 of 100 to 1000 nM.

`O=C(Nc1cc(C(F)(F)F)ccn1)Nc1cc(S(=O)(=O)NCC(F)(F)F)ccc1-c1ccccc1` [Compound 87, N-(2,2,2-trifluoroethyl)-2-(3-(4-(trifluoromethyl)pyridin-2-yl)ureido)-[1,1′-biphenyl]-4-sulfonamide] was tested, and the IC50 was 100 to 1000 nM.

`O=C(Nc1cccc(Cl)c1)Nc1cc(S(=O)(=O)NCC(F)(F)F)ccc1-c1ccccc1` [Compound 88, 2-(3-(3-chlorophenyl)ureido)-N-(2,2,2-trifluoroethyl)-[1,1′-biphenyl]-4-sulfonamide] showed an IC50 of 100 to 1000 nM.
